According to US12371424B2, “Processes for the preparation of furazanobenzimidazoles and crystalline forms thereof” (Glioblastoma Foundation, Inc., priority 2017, dated 2025):

Legend:
[1] = Polymorphic stability (XRPD, climate chamber storage)
Description: XRPD patterns were obtained using a high-throughput XRPD set-up. The plates were mounted on a Bruker GADDS diffractometer equipped with a Hi-Star area detector. The XRPD platform was calibrated using Silver Behenate for the long d-spacings and Corundum for the short d-spacings. Data collection was carried out at room temperature using monochromatic CuKo radiation in the 20 region between 1.5° and 41.5°, which is the most distinctive part of the XRPD pattern. The diffraction pattern of each well was collected in two 20 ranges (1.5° 20≤21.5° for the first frame, and 19.5°% 20≤41.5° for the second) with an exposure time of 90 s for each frame. No background subtraction or curve smoothing was applied to the XRPD patterns. The carrier material used during XRPD analysis was transparent to X-rays and contributed only slightly to the background.
For variable humidity (VH) and variable temperature (VT) experiments a ANSYCO HT chamber was used, installed within a D8 Advance system diffractometer (Bruker) designed with Bragg-Brentano geometry and equipped with LynxEye solid state detector. The radiation used for collecting the data was CuKαl (2=1.54056 Å) monochromatized by germanium crystal. The material was placed on a fixed sample holder that was mounted inside the chamber.
VH-XRPD: The humidity was applied locally and varied from 10 to 70% (dew point). […]

[2] = Dynamic vapor sorption (DVS) moisture sorption isotherm; format: physicochemical; settings: for water absorption up to 85% RH / water absorption up to 95% RH: DVS, ca. 25° C.
Description: Differences in hygroscopicity of the various forms of a solid material provided a measure of their relative stability at increasing relative humidity. Moisture sorption isotherms were obtained using a DVS-1 system from Surface Measurement Systems (London, UK). The relative humidity was varied during sorption-desorption (see specific experiment) at a constant temperature of ca. 25° C. At the end of the DVS experiment the sample was measured by XRPD.
The dynamic vapor sorption (DVS) analysis for the crystalline Form E of the dichloride salt of the compound of formula I is depicted in FIG. 11.
See Example 5f for experimental details. The DVS analysis for the crystalline System A+M of the dichloride salt of the compound of formula I is depicted in FIG. 35.

[3] = Thermodynamic pH-dependent solubility; settings: room temperature, 24 h
Description: The thermodynamic pH-dependent solubility was performed in unbuffered water as well as using standard Merck Titriplex® buffers (Merck Titrisol® buffer pH 3 with citrate and HCl; Merck Titrisol® buffer pH 4 with citrate and HCl; Merck Titrisol® buffer pH 5 with citrate and NaOH; Merck Titrisol® buffer pH 6 with citrate and NaOH; Merck Titrisol® buffer pH 7 with phosphate; for buffering at pH 4.5 a 50/50 mixture of buffers for pH 4 and 5 was used; for buffering at pH 5.5 a 50/50 mixture of buffers for pH 5 and 6 was used).
For each experiment, an 8 mL screw cap vial was prepared with the polymorphic material, the buffer solvent according to the target pH and a magnetic stirring bar. Each pH data point was determined in triplicate with a target pH of 3, 4, 4.5, 5, 5.5 and 7. The pH was measured (Fisherbrand pH meter Hydrus 400, a three point calibration was performed prior to measurement) and adjusted with 1M NaOH solution. […] After 24 h the pH was monitored and the slurries were centrifuged for 10 min at 3000 rpm to separate the solids and liquids and filtered (0.45 micron disk filter). […] Concentrations of the compound of formula I were determined by High Performance Liquid Chromatography with Diode Array Detection analysis (HPLC-DAD). […]
HPLC testing was performed on Agilent 1100 with DAD detector at 280 nm wavelength. A LOQ of 11 μg/mL was determined, linearity is given up to ca. 0.7 mg/mL. […]

| polymorphic form after 2 days at 40° C./75% RH ([1]; wet solid treated 2 days at 40° C./75% RH) | water absorption up to 85% RH [2] | water absorption up to 95% RH [2] | hysteresis in DVS ([2]; isothermic (24.9° C.) DVS, 0→95→0% RH) | maximum mass change ([2]; isothermic (24.9° C.) DVS, 0→95→0% RH in steps of 10% RH, at 95% RH) [%] | solubility (in words) [3] | polymorphic stability (in words) ([1]; listed as System A+X) | Structure (SMILES) |
| --- | --- | --- | --- | --- | --- | --- | --- |
| Form E | 1% | ca. 4% |  |  |  |  | N#CCCNc1nonc1-c1nc2ccccc2n1CC(=O)c1ccc(NC(=O)[C@@H](N)CCCCN)cc1 [Form E] |
|  |  |  | No hysteresis was observed | 34 |  |  | N#CCCNc1nonc1-c1nc2ccccc2n1CC(=O)c1ccc(NC(=O)[C@@H](N)CCCCN)cc1 [Mixture A1+M4] |
|  | ca. 22% | < 34% |  |  | good solubility | polymorphically stable | N#CCCNc1nonc1-c1nc2ccccc2n1CC(=O)c1ccc(NC(=O)[C@@H](N)CCCCN)cc1 [System A+M] |
